Where a SMILES comes first, the peptide text is derived from it. Bridges are numbered along the chain shown (N, C = ends). [ ]: non-standard residue; d: D form. The star is where a group is joined. Ileψ(thiazoline)Cys = CC[C@H](C)[C@H](N)C1=N[C@H](C(=O)*)CS1; dOrn = NCCC[C@@H](N)C(=O)O

We go through two compounds from patent publication US11883459B2, “Thiol isomerases inhibitors for the treatment and prevention of food allergies, allergic diseases, and inflammatory diseases” (WESTERN NEW ENGLAND UNIVERSITY, priority 2018, dated 2024).

The test system of data set [1] is bone marrow-derived mast cells (BMMCs). Kind of data set: cytokine production from IgE/antigen-activated bone marrow-derived mast cells (ELISA). Format: cell-based, BALB/c mice. The note with it: for activation of mast cells: DNP-IgE priming, DNP-BSA challenge; for production of mast cell cytokines such as TNF-a, IL-6, and IL-13: DNP-IgE/DNP-BSA. As for the experimental part: In this study, bone marrow-derived mast cells (BMMCs) were treated with the known PDI inhibitors bacitracin and rutin, and mast cell activation was assessed. BMMCs were generated from BALB/c mice and grown in 10 ng/ml IL-3 and 10 ng/ml stem cell factor (SCF) for 4-8 weeks. One million BMMCs in triplicates were cultured with various concentrations of the PDI inhibitors Bacitracin (Bac) and Rutin (RH) for 1 day or 7 days. Some cells were activated by priming cells with DNP-IgE (Dinitrophenyl IgE) antibodies and challenging with DNP-BSA (dinitrophenyl-bovine serum albumin). Cytokine levels (IL-4, IL-13, TNF-alpha, and IL-6 in FIGS. 1A-1D, respectively) were assessed in the supernatants 24 hr later by ELISA. FIG. 1A-1D show treatment of mast cells with PDI inhibitor Bacitracin or Rutin inhibits the activation of mast cells and the production of mast cell cytokines such as TNF-a, IL-6, and IL-13. In this study, BMMCs were treated with the known PDI inhibitor PACMA-31, and mast cell activation was assessed. Bone marrow derived mast cells (BMMCs) were generated from BALB/c mice and grown in 10 ng/ml IL-3 and 10 ng/ml SCF for 4-8 weeks. 1 million BMMCs in triplicates were cultured with 30 μM PACMA-31 (Sigma-Aldrich) for 30 minutes. Some cells were activated by priming cells with DNP-IgE antibodies and challenging with DNP-BSA. Cytokine levels (IL-13, TNF-alpha, and IL-6 in FIGS. 2A-2C) were assessed in the supernatants 6 hrs later by ELISA. FIG. 2A-2C show treatment of mast cells with the specific PDI inhibitor PACMA-31 inhibits the activation of mast cells and the production of mast cell cytokines such as TNF-a, IL-6, and IL-13.
(In general: In an ELISA, binding on a coated surface is turned into a signal by an enzyme label.)

The subject of data set [2] is ovalbumin-induced food allergy. Kind of data set: mouse model of ovalbumin-induced, mast cell-mediated food allergy. Format: in vivo, BALB/c mice. As to the method:
In this study, wild-type (Wt) mice were sensitized and challenged with ovalbumin and treated with PACMA-31 to determine whether PDI inhibition can modulate the development of food allergy. BALB/c mice were sensitized intraperitoneally (i.p.) with 50 μg ovalbumin (OVA) and 1 mg alum on day zero (d0) and d14. On day 28, some groups of mice were challenged intragastrically with 50 mg OVA once a day on 6 alternating days. Some groups of mice were treated with 300 μg PACMA-31 (P-31) intragastrically daily starting d27. […] The development of allergic diarrhea in this model is dependent on mast cell activation. […] In FIGS. 3A-3F, Wt Cont=wild-type, Control; Wt OVA=wild-type, ovalbumin; Wt+P31 Cont=wild-type, PACMA-31, Control; and Wt+P31 OVA=wild-type, PACMA-31, ovalbumin. FIG. 3A-3F show oral treatment of mice undergoing food allergy with PACMA-31 results in attenuation of the allergic response including mast cell protease levels which indicate mast cell activation (mMCP-1), OVA-IgE levels, and Th2 cytokine levels.

The conditions of data set [3]: known property; cited from earlier work.
Where [4] appears, read: wild-type mice, ovalbumin-induced food allergy.

In the case of `C#CC(=O)N(c1ccc(OC)cc1OC)C(C(=O)NCC(=O)OCC)c1cccs1` (stereo not drawn) [PACMA-31, N-(2,4-dimethoxyphenyl)-N-(1-oxo-2-propyn-1-yl)-2-(2-thienyl)glycylglycine ethyl ester], the “activation of mast cells” value in data set [1] (BMMCs cultured with 30 μM for 30 minutes, FIGS. 2A-2C) is “inhibits”. The “production of mast cell cytokines such as TNF-a, IL-6, and IL-13” value in data set [1] (BMMCs cultured with 30 μM for 30 minutes, supernatants 6 hrs later by ELISA, FIGS. 2A-2C) is listed as “inhibits”. In addition, the “mast cell protease levels which indicate mast cell activation (serum mMCP-1)” value in data set [2] (300 μg intragastrically daily from d27, OVA-sensitized and challenged mice, FIG. 3A) is “attenuation”. Moreover, in data set [2] (300 μg intragastrically daily from d27, OVA-sensitized and challenged mice, FIG. 3B), the “serum OVA-IgE levels” value is listed as “attenuation”. In addition, the “Th2 cytokine levels in supernatants of spleen cells restimulated with OVA” value in data set [2] (300 μg intragastrically daily from d27, OVA-sensitized and challenged mice, FIGS. 3C-3F) is listed as “attenuation”. Further, in data set [2] (setting [4]), the “allergen-specific IgE” value is on record as “decreases”, the “development of food allergy symptoms” value is “significant attenuation” and the mast cell activation entry is reported as “decreases”. Further, the allergic diarrhea result in data set [2] (wild-type mice, ovalbumin-induced food allergy, observed one hour after 6th challenge) is “decreases”. The oral bioavailability entry in data set [3] is reported as “orally bioavailable”.

As for `CC[C@H](C)[C@H](N)C1=N[C@H](C(=O)N[C@@H](CC(C)C)C(=O)N[C@H](CCC(=O)O)C(=O)N[C@H](C(=O)N[C@H]2CCCCNC(=O)[C@H](CC(N)=O)NC(=O)[C@@H](CC(=O)O)NC(=O)[C@H](Cc3cnc[nH]3)NC(=O)[C@@H](Cc3ccccc3)NC(=O)[C@H]([C@@H](C)CC)NC(=O)[C@@H](CCCN)NC2=O)[C@@H](C)CC)CS1` [Bacitracin, bacitracin] ({Ileψ(thiazoline)Cys}-L[dE]IK[dOrn]I[dF]H[dD]N; lactam 4-C), in data set [1] (BMMCs cultured with various concentrations for 1 day or 7 days, FIGS. 1A-1D), the “activation of mast cells” value is “inhibits”. Further, the “production of mast cell cytokines such as TNF-a, IL-6, and IL-13” value in data set [1] (BMMCs cultured with various concentrations for 1 day or 7 days, supernatants 24 hr later by ELISA, FIGS. 1A-1D) is reported as “inhibits”.
